# Where “and” joins values, the source holds several entries; their conditions need not be identical. Equal values may be shown once. Where a SMILES comes first, the peptide text is derived from it. [ ]: non-standard residue; d: D form. Hyp = O=C(O)[C@@H]1C[C@@H](O)CN1
# Legend:
# IL-10 = test: Example 9 Luminex, LPS hPBMCs: IL-10; type: cell-based, human; details: IL-10
# Procedure: (§1) Treatment Human PBMCs were pretreated with YY-101, YDE-011 and YDE-043 or reference compound; Xiidra® at various concentration (ranging from 1 nM to 100 uM) for 2 h before stimulation. An equal volume of 0.5% DMSO was used as a vehicle control. Then, the cells were treated with LPS at 5 ug/ml. The supernatants from treated cells were harvested at 24 h and placed in a 96 well for Luminex cytokine & chemokine profiling using a Luminex 200 multiplex assay (Luminex; R&D system, USA).
# (§2) The main study arm with triplicate wells per group in a 24-well plate: • 1. Blank • 2. PBMC: 0.5% DMSO • 3. PBMC+LPS (5 ug/ml) • 4. PBMC+YY-101 100 uM • 5. PBMC+YY-101 10 uM • 6. PBMC+YY-101 1 uM • 7. PBMC+YY-101 0.1 uM • 8. PBMC+YY-101 0.01 uM • 9. PBMC+LPS (5 ug/ml)+Xiidra®100 uM • 10. PBMC+LPS (5 ug/ml)+Xiidra® 10 uM • 11. PBMC+LPS (5 ug/ml)+Xiidra® 1 uM • 12. PBMC+LPS (5 ug/ml)+Xiidra®0.1 uM • 13. PBMC+LPS (5 ug/ml)+Xiidra®0.01 uM • 14. PBMC+LPS (5 ug/ml)+Xiidra®0.001 uM • 15. PBMC+LPS (5 ug/ml)+YY-101 100 uM • 16. PBMC+LPS (5 ug/ml)+YY-101 10 uM • 17. PBMC+LPS (5 ug/ml)+YY-101 1 uM • 18. PBMC+LPS (5 ug/ml)+YY-101 0.1 uM • 19. PBMC+LPS (5 ug/ml)+YY-101 0.01 uM • 20. PBMC+LPS (5 ug/ml)+YY-101 0.001 uM • 21. PBMC+LPS (5 ug/ml)+YDE-011 100 uM • 22. PBMC+LPS (5 ug/ml)+YDE-011 10 uM • 23. PBMC+LPS (5 ug/ml)+YDE-011 1 uM • 24. PBMC+LPS (5 ug/ml)+YDE-011 0.1 uM • 25. PBMC+LPS (5 ug/ml)+YDE-011 0.01 uM • 26. PBMC+LPS (5 ug/ml)+YDE-011 0.001 uM • 27. PBMC+LPS (5 ug/ml)+YDE-043 100 uM • 28. PBMC+LPS (5 ug/ml)+YDE-043 10 uM • 29. PBMC+LPS (5 ug/ml)+YDE-043 1 uM • 30. PBMC+LPS (5 ug/ml)+YDE-043 0.1 uM • 31. PBMC+LPS (5 ug/ml)+YDE-043 0.01 uM • 32. PBMC+LPS (5 ug/ml)+YDE-043 0.001 uM
# (§3) Multiplex assay was used to measure 30 cytokines and chemokines. The 1:2, 1:10 and 1:200 diluted cell supernatant and serial dilution of the standard were dispensed into a 96 well plate at 50 ul/well. Then, the pre-mixed cocktail of antibody-coated magnetic beads was dispensed at 50 ul/well and incubated at room temperature for 2 h in a horizontal orbital microplate shaker at 800±500 rpm. The beads were washed using a magnetic device to prevent loss. The biotin-antibody was dispensed in 50 ul of each well and incubated at room temperature for 1 h in a shaker at 800±500 rpm. After washing, streptavidin-PE was added at 50 ul/well and incubated at room temperature for 30 min in a shaker under the same conditions. Finally, after washing, wash buffer (100 ul/well) was added to the plate and incubated in a shaker for 2 min. The Luminex™ 200 setting were set according to the manufacturer's protocol. The data was calculated with a standard five-parameter logistic nonlinear regression analysis of the data (xPonent software 4.2, USA). The levels of cytokine/chemokine are normalized to the live cell counts (1×10^5 cells/mL) and presented as concentrations per mL (pg/mL or ng/mL).
# TNF-alpha = test: Example 9 Luminex, LPS hPBMCs: TNF-alpha; type: cell-based, human
# Procedure: as §1, §2, §3
# [1] = PBMC + LPS(5 ug/ml) + test article 0.001 uM, Mean
# [2] = PBMC + LPS(5 ug/ml) + test article 0.001 uM, single replicates
# [3] = PBMC + LPS(5 ug/ml) + test article 0.01 uM, Mean
# [4] = PBMC + LPS(5 ug/ml) + test article 0.01 uM, single replicates
# [5] = PBMC + LPS(5 ug/ml) + test article 0.1 uM, Mean
# [6] = PBMC + LPS(5 ug/ml) + test article 0.1 uM, single replicates
# [7] = PBMC + LPS(5 ug/ml) + test article 1 uM, Mean
# [8] = PBMC + LPS(5 ug/ml) + test article 1 uM, single replicates
# [9] = PBMC + LPS(5 ug/ml) + test article 10 uM, Mean
# [10] = PBMC + LPS(5 ug/ml) + test article 10 uM, single replicates
# [11] = PBMC + LPS(5 ug/ml) + test article 100 uM, Mean
# [12] = PBMC + LPS(5 ug/ml) + test article 100 uM, single replicates
# [13] = PBMC + LPS(5 ug/ml) + test article 0.001 uM, individual replicates (1st, 2nd, 3rd)
# [14] = PBMC + LPS(5 ug/ml) + test article 0.01 uM, individual replicates (1st, 2nd, 3rd)
# [15] = PBMC + LPS(5 ug/ml) + test article 0.1 uM, individual replicates (1st, 2nd, 3rd)
# [16] = PBMC + LPS(5 ug/ml) + test article 1 uM, individual replicates (1st, 2nd, 3rd)
# [17] = PBMC + LPS(5 ug/ml) + test article 10 uM, individual replicates (1st, 2nd, 3rd)
# [18] = PBMC + LPS(5 ug/ml) + test article 100 uM, individual replicates (1st, 2nd, 3rd)
structure (smiles),measurement,setting,value
CC(C)C[C@H](NC(=O)[C@H](CCC(N)=O)NC(=O)CNC(=O)[C@@H]1C[C@@H](O)CN1)C(=O)NCC(=O)O [YDE-043] (H-[Hyp]GQLG-OH; N-terminus and C-terminus assumed),Concentration,IL-10; [1],305.6 pg/mL
same,conc/live cell (pg/10^5),IL-10; [1],62.5 pg/10^5
same,Concentration,IL-10; [2],335.7 pg/mL and 298.3 pg/mL and 282.9 pg/mL
same,conc/live cell (pg/10^5),IL-10; [2],76.3 pg/10^5 and 49.7 pg/10^5 and 61.5 pg/10^5
same,Concentration,IL-10; [3],344.9 pg/mL
same,conc/live cell (pg/10^5),IL-10; [3],65.7 pg/10^5
same,Concentration,IL-10; [4],344.9 pg/mL and 362.6 pg/mL and 327.1 pg/mL
same,conc/live cell (pg/10^5),IL-10; [4],76.7 pg/10^5 and 54.9 pg/10^5 and 65.4 pg/10^5
same,Concentration,IL-10; [5],322.4 pg/mL
same,conc/live cell (pg/10^5),IL-10; [5],59.9 pg/10^5
same,Concentration,IL-10; [6],330.0 pg/mL and 312.8 pg/mL and 324.3 pg/mL
same,conc/live cell (pg/10^5),IL-10; [6],66.0 pg/10^5 and 55.9 pg/10^5 and 57.9 pg/10^5
same,Concentration,IL-10; [7],327.6 pg/mL
same,conc/live cell (pg/10^5),IL-10; [7],62.1 pg/10^5
same,Concentration,IL-10; [8],328.6 pg/mL and 312.8 pg/mL and 341.4 pg/mL
same,conc/live cell (pg/10^5),IL-10; [8],56.7 pg/10^5 and 65.2 pg/10^5 and 64.4 pg/10^5
same,Concentration,IL-10; [9],297.7 pg/mL
same,conc/live cell (pg/10^5),IL-10; [9],55.2 pg/10^5
same,Concentration,IL-10; [10],318.5 pg/mL and 277.0 pg/mL and 297.5 pg/mL
same,conc/live cell (pg/10^5),IL-10; [10],61.3 pg/10^5 and 51.3 pg/10^5 and 53.1 pg/10^5
same,Concentration,IL-10; [11],109.4 pg/mL
same,conc/live cell (pg/10^5),IL-10; [11],17.4 pg/10^5
same,Concentration,IL-10; [12],106.7 pg/mL and 112.1 pg/mL
same,conc/live cell (pg/10^5),IL-10; [12],17.2 pg/10^5 and 17.5 pg/10^5
same,TNF-alpha Concentration,TNF-alpha; [1],1325.0 pg/mL
same,TNF-alpha conc/live cell,TNF-alpha; [1],268.4 pg/10^5
same,TNF-alpha Concentration,TNF-alpha; [13],1248.3 pg/mL and 1405.1 pg/mL and 1321.4 pg/mL
same,TNF-alpha conc/live cell,TNF-alpha; [13],283.7 pg/10^5 and 234.2 pg/10^5 and 287.3 pg/10^5
same,TNF-alpha Concentration,TNF-alpha; [3],1327.4 pg/mL
same,TNF-alpha conc/live cell,TNF-alpha; [3],253.6 pg/10^5
same,TNF-alpha Concentration,TNF-alpha; [14],1282.6 pg/mL and 1322.9 pg/mL and 1376.7 pg/mL
same,TNF-alpha conc/live cell,TNF-alpha; [14],285.0 pg/10^5 and 200.4 pg/10^5 and 275.3 pg/10^5
same,TNF-alpha Concentration,TNF-alpha; [5],1319.0 pg/mL
same,TNF-alpha conc/live cell,TNF-alpha; [5],244.5 pg/10^5
same,TNF-alpha Concentration,TNF-alpha; [15],1254.3 pg/mL and 1333.4 pg/mL and 1369.2 pg/mL
same,TNF-alpha conc/live cell,TNF-alpha; [15],250.9 pg/10^5 and 238.1 pg/10^5 and 244.5 pg/10^5
same,TNF-alpha Concentration,TNF-alpha; [7],1260.8 pg/mL
same,TNF-alpha conc/live cell,TNF-alpha; [7],238.1 pg/10^5
same,TNF-alpha Concentration,TNF-alpha; [16],1330.4 pg/mL and 1136.7 pg/mL and 1315.4 pg/mL
same,TNF-alpha conc/live cell,TNF-alpha; [16],229.4 pg/10^5 and 236.8 pg/10^5 and 248.2 pg/10^5
same,TNF-alpha Concentration,TNF-alpha; [9],1247.9 pg/mL
same,TNF-alpha conc/live cell,TNF-alpha; [9],231.0 pg/10^5
same,TNF-alpha Concentration,TNF-alpha; [17],1175.4 pg/mL and 1249.8 pg/mL and 1318.4 pg/mL
same,TNF-alpha conc/live cell,TNF-alpha; [17],226.0 pg/10^5 and 231.4 pg/10^5 and 235.4 pg/10^5
same,TNF-alpha Concentration,TNF-alpha; [11],901.5 pg/mL
same,TNF-alpha conc/live cell,TNF-alpha; [11],143.3 pg/10^5
same,TNF-alpha Concentration,TNF-alpha; [18],956.0 pg/mL and 847.0 pg/mL
same,TNF-alpha conc/live cell,TNF-alpha; [18],154.2 pg/10^5 and 132.4 pg/10^5

# — patent US20230146455A1, “TREATMENT OF INFLAMMATORY DISEASES WITH PEPTIDES AND PHARMACEUTICAL COMPOSITIONS” (Yuyu Pharma, Inc., priority 2020, published 2023)
